Read-outs that look alike come from different tables or passages of the source.
Key:
[1] = Stability in the perfusion solution (transport medium) at 37 °C; type: physicochemical; conditions: for Presence of degradation products / derivatives in the perfusion solution (stability study): OLEA in transport medium, 60 min
Experimental: The transport medium (TM; pH 7, 9.7 g/L HBSS buffered with HEPES 10 mM) was used to infuse the compounds via the intestine. […] Red phenol was assayed at 0.1 mg/mL. The stability of these test compounds, sampled at different times, was monitored in the perfusion solution at 37 °C for 60 min. Stability study and lumen samples: The stability and perfusate OLEA samples were defrosted and centrifuged (11,000× g, 4 °C, 10 min), and 100 µL of the upper phase was transferred to vials for analysis.

[2] = Metabolite profiling in lumen, plasma and ileum tissue after SPIP (LC–ESI–LTQ–Orbitrap–MS); type: in vivo
Experimental: The SPIP studies were performed in anesthetized rats according to the method described by López-Yerena and coworkers; the donor blood and surgical procedure (Figure 1) were as described in that study. Regarding the procedure of donor blood, the rats were anesthetized by isoflurane inhalation (2.5%), and the whole blood was collected via cardiac puncture. […]. In the case of the rats that underwent surgery, the rats received intraperitoneal administration of pentobarbital sodium (Dolethal) at a dose of 60 mg/kg, and a maintenance dose of isoflurane (1.5%) was given 50 min after the induction dose. Body temperature was maintained at 37 ± 0.5 °C throughout the experiment by means of a homeothermic blanket. An ileal segment of approximately 7–10 cm was cannulated. […] The phenol red included in the perfusion solution was used as non-absorbable marker for measuring water transport. To avoid the oxidation of OLEA, we carried out the SPIP experiments in a laboratory room with infrared light. Samples of both the intestinal lumen and mesenteric blood were collected simultaneously at 5 min intervals for 60 min. The outflow perfusate samples were collected in 2 mL amber vials and the blood was collected in pre-weighed lithium-heparinized tubes (BD Vacutainer). Next, the perfusate samples were centrifuged (7516× g for 10 min at 4 °C), and the tubes with blood samples were weighed and centrifuged (3000× g for 10 min at 4 °C). The supernatants were collected and immediately stored at −80 °C awaiting analysis by LC–ESI–LTQ–Orbitrap–MS.
Plasma: The extraction of OLEA and its metabolites was carried out with protein precipitation. Initially, the samples were thawed and centrifuged (11,000× g, 10 min at 4 °C). To precipitate proteins, we blended 100 µL of plasma with cold acetonitrile containing 2% of formic acid (1:5 v/v). Samples were vortex-mixed for 1 min and kept at −20 °C for 20 min. The samples were then centrifuged (11,000× g, 4 °C, 10 min), and finally 100 µL of the supernatant was transferred to vials for analysis.
Stability study and lumen samples: The stability and perfusate OLEA samples were defrosted and centrifuged (11,000× g, 4 °C, 10 min), and 100 µL of the upper phase was transferred to vials for analysis. […].
Ileum tissue: The intestinal segment perfunded with OLEA in the SPIP experiments was also analyzed to quantify the OLEA and its metabolites retained in the tissue. First, the intestinal segment was rinsed by several perfusions with TM and then cut into small sections and homogenized after the addition of water/acetonitrile (1:1 (v/v) with 0.1% ascorbic acid) with a small tissue disruptor (T10 basic ULTRA-TURRAX®, IKA laboratory technology, Staufen, Germany). The samples were sonicated in an ice bath (5 min), shaken for 1 min, and centrifuged (11,000× g, 4 °C, 10 min). To precipitate proteins, we blended 100 µL of the upper layer with cold acetonitrile containing 2% of formic acid (1:3 v/v). Samples were vortex-mixed for 1 min, kept at −20 °C for 20 min, and centrifuged again (11,000× g, 4 °C, 10 min) before analyzing the supernatant.
The quantification of OLEA and red phenol in the samples and the profiling and structural characterization of OLEA metabolites was carried out using LC–ESI–LTQ–Orbitrap–MS. LC separation was performed using an Accela chromatograph (Thermo Scientific, Hemel Hempstead, UK) equipped with a quaternary pump, a photodiode array detector, and a thermostated autosampler. A 5-μL sample aliquot was injected onto an Acquity^TM UPLC® BEH C18 Column (2.1 × 100 mm, i.d., 1.7 µm particle size) coupled to an Acquity^TM UPLC® BEH C18 Pre-Column (2.1 × 5 mm, i.d., 1.7 µm particle size) (Waters Corporation®, Wexford, Ireland) with the column temperature set at 50 °C. Eluent A was 0.05% (v/v) formic acid in water, and eluent B was 0.05% formic acid in methanol. […]. […]

[3] = cited from earlier work
[4] = Single-pass intestinal perfusion (SPIP) with mesenteric blood sampling: permeability and absorption; type: in vivo; conditions: ileum, SPIP in rats
Experimental: The transport medium (TM; pH 7, 9.7 g/L HBSS buffered with HEPES 10 mM) was used to infuse the compounds via the intestine. […] Red phenol was assayed at 0.1 mg/mL. The stability of these test compounds, sampled at different times, was monitored in the perfusion solution at 37 °C for 60 min.
Differences were considered significant at p < 0.05.

[5] = cited from earlier work; remark: listed apart in the source
[6] = parameters: method as in PMID 26904279; conditions: oral administration 300 mg/kg in rats; cited from earlier work
[7] = after OLEA perfusion (SPIP, 60 min)

Question: What does the source list for `OCCc1ccc(O)c(O)c1` [M2, hydroxytyrosol]?
Answer: Presence of degradation products / derivatives in the perfusion solution (stability study) [1]: absence; Detection in lumen, plasma and ileum tissue samples ([2]; rat, in vivo): found in lumen, plasma, and ileum tissue; Time of highest concentration ([2]; rat, in vivo): 55 min; Metabolite level in plasma relative to lumen (fold higher) ([2]; rat, in vivo, 60 min): 27 fold

Question: Which “Detection in lumen, plasma and ileum tissue samples” value (“Detection in lumen” below) [2, 7] does the source give for `C/C=C(/CO)C(CC=O)CC(=O)OCCc1ccc(O)c(O)c1` (stereo not shown) [M3] here?
Answer: detected in lumen, plasma, and ileum tissue

Question: Which results are given for `C/C=C(/C=O)C(CC(=O)O)CC(=O)OCCc1ccc(O)c(O)c1` (stereo not shown) [M4]?
Answer: Detection in lumen, plasma and ileum tissue samples [2, 7]: detected in lumen, plasma, and ileum tissue; Metabolite level in plasma relative to lumen (fold higher) ([2]; after OLEA perfusion, at 60 min): 29 fold; Time of highest concentration ([2]; plasma and lumen samples, after OLEA perfusion, p < 0.05): 60 min

Question: Which “Presence of degradation products / derivatives in the perfusion solution (stability study)” value [1] does the source give for `C/C=C(/C=O)C(CC(=O)OCCc1ccc(O)c(O)c1)CC(O)O` (stereo not shown) [M5] here?
Answer: traces

Question: And the “Detection in lumen” value [2, 7]?
Answer: detected in lumen, plasma, and ileum tissue

Question: For `C/C=C(/C=O)C(CC=O)CC(=O)OCCc1ccc(O)c(OC)c1` (stereo not shown) [M6], which “Detection in lumen” value [2, 7] is on record?
Answer: found in ileum tissue samples but not in the plasma and lumen

Question: For `C/C=C(/C=O)C(CC(=O)O)CC(=O)OCCc1ccc(O)c(OC)c1` (stereo not shown) [M7], which “Detection in lumen” value [2, 7] is on record?
Answer: detected in plasma and, after being secreted by an efflux membrane protein, in lumen samples

Question: Which “Detection in lumen” value [2, 7] does the source give for `C/C=C(/C=O)C(CC(=O)OCCc1ccc(O)c(OC)c1)CC(O)O` (stereo not shown) [M8] here?
Answer: found in ileum tissue samples but not in the plasma and lumen

Question: Which “Main product of phase II biotransformation” value ([2]; all the samples (plasma, lumen, ileum tissue)) does the source give for `CC=C(CO)C(CC=O)CC(=O)OCCc1ccc(OC2OC(C(=O)O)C(O)C(O)C2O)c(O)c1` (stereo not shown) [M9] here?
Answer: main product of phase II biotransformation reactions in all the samples

Question: What about the “Time of highest relative abundance” value ([2]; lumen samples, after OLEA perfusion, p < 0.05) of the same molecule?
Answer: 55 to 60 min

Question: What about the “Time of highest relative abundance” value ([2]; plasma, after OLEA perfusion, p < 0.05) of the same molecule?
Answer: 45 to 60 min

Question: With `CC=C(C=O)C(CC(=O)OCCc1ccc(OC2OC(C(=O)O)C(O)C(O)C2O)c(OC)c1)CC(O)O` (stereo not shown) [M11] as the molecule, how does the “Detection in lumen” value [2, 7] read?
Answer: detected in lumen and ileum tissue samples but not in plasma

Question: What does the source list for `COc1ccc2cc([C@H](C)C(=O)O)ccc2c1` [Naproxen]?
Answer: Peff ± SD ([3]; Colon): 2.06 ± 1.04 × 10^−4 cm/s; Peff ± SD ([3]; Ileum, ref 56): 1.78 ± 0.52 × 10^−4 cm/s; Peff ± SD ([3]; Ileum, ref 57): 1.17 ± 0.23 × 10^−4 cm/s; Peff ± SD ([3]; Jejunum, ref 33): 1.19 ± 0.12 × 10^−4 cm/s; Peff ± SD ([3]; Jejunum, ref 56): 1.47 ± 0.25 × 10^−4 cm/s; Peff ± SD ([3]; Jejunum, ref 58): 1.17 ± 0.23 × 10^−4 cm/s

Question: Which results are given for `C/C=C(/C=O)[C@@H](CC=O)CC(=O)OCCc1ccc(O)c(O)c1` [OLEA, Oleacein]?
Answer: Absorption (%) ([4]; mean ± SD, n = 4): 48.98 ± 12.27%; Mean permeability ratio (Peff) of OLEA/naproxen ([4]; p > 0.05): 1.24; Effective intestinal permeability (Peff) at 60 min ([4]; rat, pH 7, luminal disappearance, mean ± SD, n = 4, read-out: Intestinal effective permeability coefficient (Peff) ± SD): 183 ± 18 ×10⁻⁶ cm/s; Stability in the perfusion solution ([1]; over 60 min, p > 0.05): remained stable; log P (octanol/water) ([5]; ref 16): 1.02; log P (octanol/water) ([5]; ref 60): 1.53; Detection in portal plasma [6]: did not observe

Question: Which “Detection in lumen” value [2, 7] does the source give for elenolic acid here?
Answer: not detected in any sample

Reference: paper PMC8153610, “Oleacein Intestinal Permeation and Metabolism in Rats Using an In Situ Perfusion Technique” (Pharmaceutics, 2021)
